Results taken from the supplement of paper PMC11061612.

Legend:
[1] = system: CAL-148 (Breast Carcinoma); experiment: Bliss excess, mean over the matrix (fraction); higher = more synergy
Method in brief: (§1)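 Cell lines in DMEM/F12 or RPMI with 10% FBS were plated in 1536-well plates, held 24 hours at 37°C, 5% CO2, then given two-drug dose matrices for 72 hours (DMSO typically 0.2%). Viability was read by CellTiter-Glo 2.0 luminescence and scaled as inhibition from 0 (vehicle wells) to 1 (blank wells). Combination Emax is the second-highest inhibition in the matrix; Bliss excess is observed combination effect minus expected EA + EB − EA·EB, EA and EB being single-agent effects.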

[2] = system: DoTc2-4510 (Cervical Carcinoma); experiment: as above
Method in brief: as §1

[3] = system: HT-1376 (Bladder Carcinoma); experiment: as above
Method in brief: as §1

[4] = system: CaR-1 (Colorectal Carcinoma); experiment: as above
Method in brief: as §1

[5] = system: UM-UC-3 (Bladder Carcinoma); experiment: as above
Method in brief: as §1

[6] = system: CCRF-CEM (T-Lymphoblastic Leukemia); experiment: as above
Method in brief: as §1

KELLY (Neuroblastoma) [7] = experiment: as above
Method in brief: as §1

[8] = system: ME-1 (Acute Myeloid Leukemia); experiment: as above
Method in brief: as §1

[9] = system: TE-15 (Esophageal Squamous Cell Carcinoma); experiment: as above
Method in brief: as §1

[10] = system: TE-9 (Esophageal Squamous Cell Carcinoma); experiment: as above
Method in brief: as §1

[11] = system: LS-180 (Colorectal Carcinoma); experiment: as above
Method in brief: as §1

[12] = system: Hs-578-T (Breast Carcinoma); experiment: as above
Method in brief: as §1

NB10 (Neuroblastoma) = experiment: as above
Method in brief: as §1

[13] = system: NCI-H82 (Small Cell Lung Carcinoma); experiment: as above
Method in brief: as §1

[14] = system: RO82-W-1 (Thyroid Gland Carcinoma); experiment: as above
Method in brief: as §1

[15] = system: Calu-3 (Lung Adenocarcinoma); experiment: as above
Method in brief: as §1

[16] = system: CaR-1 (Colorectal Carcinoma); experiment: combination Emax (second highest fraction inhibited in the dose matrix, 72 h); higher = more inhibition; extreme values may be limits of the assay
Method in brief: as §1

T98G (Glioblastoma) = experiment: as above
Method in brief: as §1

KELLY (Neuroblastoma) [17] = experiment: as above
Method in brief: as §1

[18] = system: RO82-W-1 (Thyroid Gland Carcinoma); experiment: as above
Method in brief: as §1
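For Bliss excess, mean over the matrix in this document: after 72 h of two-drug dosing.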

| SMILES | Bliss excess [1] | Bliss excess [2] | Bliss excess [3] | Bliss excess [4] | Bliss excess [5] | Bliss excess [6] | Bliss excess (KELLY (Neuroblastoma) [7]) | Bliss excess [8] | Bliss excess [9] | Bliss excess [10] | Bliss excess [11] | Bliss excess [12] | Bliss excess (NB10 (Neuroblastoma)) | Bliss excess [13] | Bliss excess [14] | Bliss excess [15] | combination Emax [16] | combination Emax (T98G (Glioblastoma)) | combination Emax (KELLY (Neuroblastoma) [17]) | combination Emax [18] |
| --- | --- | --- | --- | --- | --- | --- | --- | --- | --- | --- | --- | --- | --- | --- | --- | --- | --- | --- | --- | --- |
| O=C(c1cc(Cc2n[nH]c(=O)c3ccccc23)ccc1F)N1CCN(C(=O)C2CC2)CC1 [Olaparib] + CC1(C)CCC(CN2CCN(c3ccc(C(=O)NS(=O)(=O)c4ccc(NCC5CCOCC5)c([N+](=O)[O-])c4)c(Oc4cnc5[nH]ccc5c4)c3)CC2)=C(c2ccc(Cl)cc2)C1 [Venetoclax] (first compound max 10 µM, 7x7, partner max 1 µM) | -0.0581 | -0.0462 | -0.0522 | -0.0509 | -0.0528 | -0.0036 | 0.0744 | 0.0436 | -0.0098 | -0.045 | -0.0431 | -0.115 | -0.0041 | -0.0197 | -0.0277 | -0.0406 | 0.0709 | 0.123 | 0.632 | 0.129 |
| C=CCn1c(=O)c2cnc(Nc3ccc(N4CCN(C)CC4)cc3)nc2n1-c1cccc(C(C)(C)O)n1 [AZD1775] + Nc1ccn([C@@H]2O[C@H](CO)[C@@H](O)C2(F)F)c(=O)n1 [Gemcitabine] (first compound max 1 µM, partner max 0.3 µM) | 0.0035 | 0.033 | -0.0432 | -0.0001 | 0.0758 | 0.0584 | 0.0306 | -0.0044 | 0.042 | -0.0253 | -0.0906 | 0.045 | 0.0509 | -0.0404 | -0.0271 | -0.013 | 0.729 | 0.781 | 1 | 0.194 |
| Cc1c2c(nn1C)CSCc1cc(n(C)n1)CSc1cc(c3ccccc3c1)OCCCc1c(C(=O)O)n(C)c3c-2c(Cl)ccc13 [AZD5991] + CS(=O)(=O)CCNCc1ccc(-c2ccc3ncnc(Nc4ccc(OCc5cccc(F)c5)c(Cl)c4)c3c2)o1 [Lapatinib] (first compound max 1 µM, 7x7, partner max 10 µM) | 0.0041 | -0.0004 | -0.0102 | 0.0071 | -0.001 | -0.0676 | 0.0879 | -0.0089 | -0.012 | -0.0218 | 0.0651 | -0.0984 | -0.0197 | -0.0161 | -0.0357 | 0.0244 | 0.432 | 0.412 | 1 | 0.141 |
| CS(=O)(=O)CCNCc1ccc(-c2ccc3ncnc(Nc4ccc(OCc5cccc(F)c5)c(Cl)c4)c3c2)o1 [Lapatinib] + NC1(c2ccc(-c3nc4ccn5c(=O)[nH]nc5c4cc3-c3ccccc3)cc2)CCC1 [MK-2206] (first compound max 10 µM, 7x7, partner max 10 µM) | 0.0253 | 0.0089 | -0.0333 | -0.0032 | -0.0065 | 0.026 | 0.0098 | -0.0069 | -0.0202 | -0.0208 | 0.0501 | 0.0381 | -0.0423 | -0.0176 | -0.0165 | 0.0123 | 0.779 | 0.908 | 0.959 | 0.24 |
| N#Cc1cnc(Nc2cc(NC[C@H]3CNCCO3)c(C(F)(F)F)cn2)cn1 [SRA737] + Nc1ccn([C@@H]2O[C@H](CO)[C@@H](O)C2(F)F)c(=O)n1 [Gemcitabine] (first compound max 10 µM, 7x7, partner max 0.3 µM) | 0.0721 | 0.135 | -0.0059 | -0.0167 | 0.0629 | 0.0316 | 0.0213 | 0.0803 | 0.0703 | 0.0126 | -0.0884 | 0.0695 | 0.0922 | -0.0231 | -0.0037 | 0.0286 | 0.67 | 0.825 | 1 | 0.212 |
| Cc1c2c(nn1C)CSCc1cc(n(C)n1)CSc1cc(c3ccccc3c1)OCCCc1c(C(=O)O)n(C)c3c-2c(Cl)ccc13 [AZD5991] + CC(=O)O[C@H]1C(=O)[C@@]2(C)[C@H]([C@H](OC(=O)c3ccccc3)[C@]3(O)C[C@H](OC(=O)[C@H](O)[C@@H](NC(=O)c4ccccc4)c4ccccc4)C(C)=C1C3(C)C)[C@]1(OC(C)=O)CO[C@@H]1C[C@@H]2O [Paclitaxel] (first compound max 1 µM, 7x7, partner max 3 µM) | 0.0436 | -0.0508 | -0.0424 | 0.038 | -0.0693 | -0.0339 | 0.0544 | -0.0368 | 0.0224 | 0.0317 | -0.033 | 0.0368 | 0.0264 | -0.0392 | -0.023 | -0.0064 | 0.741 | 0.883 | 1 | 0.401 |
| C[C@@H](Nc1cc(F)cc(F)c1)c1cc(C(=O)N(C)C)cc2c(=O)cc(N3CCOCC3)oc12 [AZD8186] + C1CN(CCC1(C(=O)N[C@@H](CCO)C2=CC=C(C=C2)Cl)N)C3=NC=NC4=C3C=CN4 [AZD5363] (first compound max 10 µM, 7x7, partner max 10 µM) | -0.0019 | -0.0017 | -0.0404 | 0.0054 | 0.0454 | 0.007 | -0.0246 | -0.052 | 0.0126 | -0.0405 | -0.0425 | -0.0815 | -0.0398 | -0.0759 | -0.0132 | 0.0001 | 0.394 | 0.562 | 0.115 | 0.201 |
| CN(CCO)CC[C@H](CSc1ccccc1)Nc1ccc(S(=O)(=O)NC(=O)c2ccc(N3CCC([C@@H](O)c4ccccc4-c4ccc(Cl)cc4)CC3)cc2)cc1S(=O)(=O)C(F)(F)F [AZD4320] + CS(=O)(=O)CCNCc1ccc(-c2ccc3ncnc(Nc4ccc(OCc5cccc(F)c5)c(Cl)c4)c3c2)o1 [Lapatinib] (first compound max 1 µM, 7x7, partner max 10 µM) | -0.0411 | 0.051 | 0.0125 | -0.0122 | 0.0099 | 0.0305 | 0.0272 | 0.0937 | -0.0004 | 0.0137 | -0.0521 | 0.0188 | -0.0204 | 0.0747 | 0.0002 | 0.0224 | 0.785 | 0.741 | 0.994 | 0.646 |
| O=C(c1cc(Cc2n[nH]c(=O)c3ccccc23)ccc1F)N1CCN(C(=O)C2CC2)CC1 [Olaparib] + CN(CC[C@H](CSC1=CC=CC=C1)NC2=C(C=C(C=C2)S(=O)(=O)NC(=O)C3=CC=C(C=C3)N4CCC(CC4)[C@H](C5=CC=CC=C5C6=CC=C(C=C6)Cl)O)S(=O)(=O)C(F)(F)F)CCO [AZD4320] (first compound max 10 µM, 7x7, partner max 1 µM) | 0.0335 | 0.03 | -0.0572 | -0.054 | 0.0086 | 0.0247 | 0.134 | -0.0216 | -0.0494 | -0.003 | -0.0552 | -0.0625 | -0.0471 | -0.0532 | 0.0031 | -0.027 | 0.136 | 0.251 | 0.831 | 0.546 |
| CC1(C)CCC(CN2CCN(c3ccc(C(=O)NS(=O)(=O)c4ccc(NCC5CCOCC5)c([N+](=O)[O-])c4)c(Oc4cnc5[nH]ccc5c4)c3)CC2)=C(c2ccc(Cl)cc2)C1 [Venetoclax] + CS(=O)(=O)CCNCc1ccc(-c2ccc3ncnc(Nc4ccc(OCc5cccc(F)c5)c(Cl)c4)c3c2)o1 [Lapatinib] (first compound max 1 µM, 7x7, partner max 10 µM) | -0.0237 | -0.0509 | -0.0404 | -0.0553 | -0.0207 | 0.0013 | 0.0417 | 0.0267 | -0.0478 | -0.0254 | -0.0428 | -0.0054 | -0.0238 | -0.0384 | -0.0299 | -0.0529 | 0.308 | 0.179 | 0.947 | 0.144 |
| C[C@@H](Oc1cc(-c2cnn(C3CCNCC3)c2)cnc1N)c1c(Cl)ccc(F)c1Cl [Crizotinib] + CC1=C(C(=CC=C1)Cl)NC(=O)C2=CN=C(S2)NC3=CC(=NC(=N3)C)N4CCN(CC4)CCO [Dasatinib] (first compound max 10 µM, 7x7, partner max 2 µM) | -0.0351 | 0.0349 | -0.0104 | 0.0573 | 0.0577 | -0.0055 | -0.019 | -0.0061 | -0.0403 | 0.0657 | -0.0156 | 0.0455 | -0.0423 | -0.0642 | 0.0517 | -0.0158 | 0.943 | 0.971 | 0.991 | 0.618 |
| C=CCn1c(=O)c2cnc(Nc3ccc(N4CCN(C)CC4)cc3)nc2n1-c1cccc(C(C)(C)O)n1 [AZD1775] + CCc1c2c(nc3ccc(O)cc13)-c1cc3c(c(=O)n1C2)COC(=O)[C@]3(O)CC [SN-38] (first compound max 1 µM, partner max 0.3 µM) | -0.0022 | -0.0173 | -0.0194 | -0.0429 | -0.0431 | -0.0423 | -0.0534 | -0.0047 | -0.0211 | -0.0022 | -0.115 | 0.0934 | -0.141 | -0.0569 | -0.0352 | -0.0341 | 0.808 | 0.95 | 1 | 0.263 |
| C[C@@H]1COCCN1c1cc(C2([S@](C)(=N)=O)CC2)nc(-c2ccnc3[nH]ccc23)n1 [AZD6738] + Nc1ccn([C@@H]2O[C@H](CO)[C@@H](O)C2(F)F)c(=O)n1 [Gemcitabine] (first compound max 10 µM, 7x7, partner max 0.3 µM) | 0.0914 | 0.118 | -0.0097 | 0.0538 | 0.113 | 0.0838 | -0.0042 | 0.0907 | 0.0378 | 0.038 | -0.0568 | 0.012 | 0.0622 | -0.0333 | -0.018 | 0.0685 | 0.752 | 0.858 | 1 | 0.223 |
